{"source": "patent US20100009970A1", "about": "“COMPOSITIONS AND METHODS FOR TREATMENT OF VIRAL DISEASES” (Combinatorx (Singapore) Pte. Ltd., priority 2008, published 2010)", "note": "Counter-ions that a name gives are not always drawn.", "data": [{"test_system": "not listed separately", "assay": "in vitro", "conditions": "human, CC50 (uM) [SG]", "units": {"CC50": "µM"}, "values": [{"smiles": "CNCc1ccccc1Oc1ccc(Br)cc1", "note": "[Compound 32]", "CC50": "> 50"}, {"smiles": "CNc1cc(S(N)(=O)=O)ccc1Oc1ccc(SC)c(C)c1", "note": "[Compound 62, 4-(3-methyl-4-(methylthio)phenoxy)-3-(methylamino)benzenesulfonamide]", "CC50": "> 50"}]}, {"test_system": "Huh7 cells expressing a subgenomic RNA replicon of Con1 (genotype 1b) sequence origin", "assay": "microbe, parasite or virus in culture", "conditions": "Hepatitis C virus, Huh-7", "units": {"IC50": "µM"}, "values": [{"smiles": "Nc1ccc(OCCCCCOc2ccc(N)cc2)cc1", "note": "[1,5-Bis(4-aminophenoxy)pentane, reference compound]", "IC50": 1.7}, {"smiles": "C=C1C[C@@H]2[C@H](CC[C@]3(C)C(=O)CC[C@@H]23)[C@@]2(C)C=CC(=O)C=C12", "note": "[Exemestane, reference compound]", "IC50": 29}, {"smiles": "CCN(CC)CCO[C@H]1CC[C@@]2(C)C(=CC[C@@H]3[C@@H]2CC[C@]2(C)C(=O)CC[C@@H]32)C1", "note": "[Example U18666A, reference compound]", "IC50": 0.02}, {"smiles": "CC1(C)O[C@@H]2C[C@H]3[C@@H]4CCC5=CC(=O)CC[C@]5(C)[C@@]4(F)[C@@H](O)C[C@]3(C)[C@]2(C(=O)CCl)O1", "note": "[Halcinonide, halcinonide, reference compound]", "IC50": 17.4}, {"smiles": "COC[C@H]1OC(=O)c2coc3c2[C@@]1(C)C1=C(C3=O)[C@@H]2CCC(=O)[C@@]2(C)C[C@H]1OC(C)=O", "note": "[Wortmannin, wortmannin, reference compound]", "IC50": 3.16}, {"smiles": "C#C[C@]1(O)CC[C@H]2[C@@H]3CCc4cc(OC5CCCC5)ccc4[C@H]3CC[C@@]21C", "note": "[Quinestrol, reference compound]", "IC50": 5.43}, {"smiles": "CN1CCCCC1CCN1c2ccccc2Sc2ccc([S+](C)[O-])cc21", "note": "(stereo not drawn) [Mesoridazine (e.g., Besylate), mesoridazine, reference compound]", "IC50": 19}, {"smiles": "CC1=C(O)C(=O)C=C2C1=CC=C1[C@@]2(C)CC[C@@]2(C)[C@@H]3C[C@](C)(C(=O)O)CC[C@]3(C)CC[C@]12C", "note": "[Celastrol, reference compound]", "IC50": 0.449}, {"smiles": "CNC(=O)Oc1cccc2ccccc12", "note": "[Carbaryl]", "IC50": 9.65}, {"smiles": "O=C1CC(O)(c2ccccc2)Oc2ccccc21", "note": "(stereo not drawn) [2-Hydroxyflavanone, 2-hydroxyflavanone, reference compound]", "IC50": 2.48}, {"smiles": "N[C@@H](Cc1cc(I)c(Oc2cc(I)c(O)c(I)c2)c(I)c1)C(=O)O", "note": "[Levothyroxine (e.g., sodium), Levothyroxine, reference compound]", "IC50": 3.79}, {"smiles": "Nc1ccn([C@@H]2O[C@H](CO)[C@@H](O)C2(F)F)c(=O)n1", "note": "[Gemcitabine (e.g., hydrochloride), Gemcitabine, reference compound]", "IC50": 0.06}, {"smiles": "Nc1ncnc2c1ncn2[C@@H]1O[C@H](CO)[C@@H](O)[C@@H]1O", "note": "[Vidarabine, vidarabine, reference compound]", "IC50": 26.7}, {"smiles": "Nc1n[n+]([O-])c2ccccc2[n+]1[O-]", "note": "[Tirapazamine, reference compound]", "IC50": 1.83}, {"smiles": "CCOC(=O)c1c(CSc2ccccc2)n(C)c2cc(Br)c(O)c(CN(C)C)c12", "note": "[Arbidol, arbidol, reference compound]", "IC50": 12.2}, {"smiles": "CN(C)CCCOc1nn(Cc2ccccc2)c2ccccc12", "note": "[Benzydamine (e.g., hydrochloride), benzydamine, reference compound]", "IC50": 9}, {"smiles": "CC(C)(C)C(=O)OCOP(=O)(COCCn1cnc2c(N)ncnc21)OCOC(=O)C(C)(C)C", "note": "[Adefovir (e.g., dipivoxil), adefovir dipivoxil, reference compound]", "IC50": 0.319}, {"smiles": "CCCCC(CC)COC(=O)/C=C/c1ccc(OC)cc1", "note": "(stereo not drawn) [Octyl Methoxycinnamate, reference compound]", "IC50": 1.24}, {"smiles": "COC(=O)[C@H]1[C@H]2C[C@@H]3c4[nH]c5cc(OC)ccc5c4CCN3C[C@H]2C[C@@H](OC(=O)c2cc(OC)c(OC)c(OC)c2)[C@@H]1OC", "note": "[Reserpine, reference compound]", "IC50": 25.3}, {"smiles": "C[C@@]1(CO)[C@H](O)CC[C@@]2(C)[C@H]1CC[C@H]1C[C@@H]3C[C@@]12CC[C@]3(O)CO", "note": "[Aphidicolin, aphidicolin, reference compound]", "IC50": 1.71}, {"smiles": "Oc1ccc(-c2nc(-c3ccc(F)cc3)c(-c3ccncc3)[nH]2)cc1", "note": "[SB-202190, reference compound]", "IC50": 5.18}, {"smiles": "Nc1nc(F)nc2c1ncn2[C@@H]1O[C@H](CO)[C@@H](O)[C@@H]1O", "note": "[Fludarabine, reference compound]", "IC50": 4.47}, {"smiles": "CC[C@H]1CN2CCc3cc(OC)c(OC)cc3[C@@H]2C[C@@H]1C[C@H]1NCCc2cc(OC)c(OC)cc21", "note": "[Emetine (e.g., dihydrochloride hydrate), Emetine, reference compound]", "IC50": 0.03}, {"smiles": "CC[N+](C)(CC)CCC[n+]1c(-c2ccccc2)c2cc(N)ccc2c2ccc(N)cc21", "note": "[Propidium (e.g., iodide), Propidium, reference compound]", "IC50": 9.38}, {"smiles": "COc1ccc2cc1Oc1ccc(cc1)C[C@H]1c3c(cc4c(c3Oc3cc5c(cc3OC)CCN(C)[C@@H]5C2)OCO4)CCN1C", "note": "[Cepharanthine, reference compound]", "IC50": 19.5}, {"smiles": "COc1c(C)c2c(c(O)c1C/C=C(\\C)CCC(=O)O)C(=O)OC2", "note": "[Mycophenolic Acid, Mycophenolic acid, reference compound]", "IC50": 0.751}, {"smiles": "N=C(NCc1ccccc1)NC(=O)c1nc(Cl)c(N)nc1N", "note": "[Benzamil (e.g., HCl), benzamil, reference compound]", "IC50": 4.73}, {"smiles": "Nc1ccn([C@@H]2O[C@H](CO)[C@@H](O)[C@@H]2O)c(=O)n1", "note": "[Cytarabine, reference compound]", "IC50": 0.117}, {"smiles": "CN(Cc1cc(Br)cc(Br)c1N)C1CCCCC1", "note": "[Bromhexine, reference compound]", "IC50": 14.2}, {"smiles": "C=C1C(=O)O[C@H]2[C@H]1CC/C(C)=C/CC[C@@]1(C)O[C@@H]21", "note": "[Parthenolide, reference compound]", "IC50": 2.69}, {"smiles": "CCc1cn([C@H]2C[C@H](O)[C@@H](CO)O2)c(=O)[nH]c1=O", "note": "[Edoxudine, edoxudine, reference compound]", "IC50": 1.95}, {"smiles": "CN(C)C/C=C(/c1ccc(Br)cc1)c1cccnc1", "note": "[Zimelidine (e.g., dihydrochloride), Zimelidine, reference compound]", "IC50": 15.1}, {"smiles": "CC(=O)[C@H]1CC[C@H]2[C@@H]3C=CC4=CC(=O)CC[C@@]4(C)[C@@H]3CC[C@]12C", "note": "[Dydrogesterone, reference compound]", "IC50": 2.75}, {"smiles": "CN(C)CCOC(C)(c1ccccc1)c1ccc(Cl)cc1", "note": "(stereo not drawn) [Chlorphenoxamine (e.g., hydrochloride), chlorphenoxamine, reference compound]", "IC50": 16.2}, {"smiles": "Cc1ccc(O)c([C@H](CCN(C(C)C)C(C)C)c2ccccc2)c1", "note": "[Tolterodine (e.g., tartrate), Tolterodine, reference compound]", "IC50": 27.2}, {"smiles": "C/C=C/C/C=C/CCC(=O)[C@H]1O[C@H]1C(N)=O", "note": "[Cerulenin, reference compound]", "IC50": 16.2}, {"smiles": "C=C(NC(=O)C(=C)NC(=O)c1csc(C2=N[C@@H]3c4csc(n4)[C@H]4NC(=O)c5csc(n5)[C@H]([C@](C)(O)[C@@H](C)O)NC(=O)[C@H]5CSC(=N5)/C(=C/C)NC(=O)[C@H]([C@@H](C)O)NC(=O)c5csc(n5)[C@]3(CC2)NC(=O)[C@H](C)NC(=O)C(=C)NC(=O)[C@H](C)NC(=O)[C@H]([C@@H](C)CC)N[C@@H]2C=Cc3c([C@H](C)O)cc(nc3[C@H]2O)C(=O)O[C@@H]4C)n1)C(N)=O", "note": "[Thiostrepton, reference compound]", "IC50": 3.84}]}, {"test_system": "Huh7 cells expressing a subgenomic RNA replicon of Con1 (genotype 1b) sequence origin", "assay": "microbe, parasite or virus in culture", "conditions": "Hepatitis C virus, Huh-7, read-out: IC50 (uM) [SG]", "units": {"IC50": "µM"}, "values": [{"smiles": "CNCc1ccccc1Oc1ccc(Br)cc1", "note": "[Compound 32]", "IC50": 31.2}]}, {"test_system": "Huh7 cells expressing a subgenomic RNA replicon of Con1 (genotype 1b) sequence origin", "assay": "microbe, parasite or virus in culture", "conditions": "Hepatitis C virus, Huh-7, read-out: Max Effect@CC30 (inhibition)", "units": {"Emax": "%"}, "values": [{"smiles": "CNCc1ccccc1Oc1ccc(Br)cc1", "note": "[Compound 32]", "Emax": 30}, {"smiles": "COc1cccc(Oc2ccc(Br)cc2CN(C)C)c1", "note": "[Compound 38, (5-bromo-2-(3-methoxyphenoxy)phenyl)-N,N-dimethylmethanamine]", "Emax": 42}]}]}
